{"source": "patent US20090226527A1", "about": "“Particulate-stabilized injectable pharmacutical compositions of posaconazole” (priority 2004, published 2009)", "test_system": "infectious agents (strains tested)", "experiment": "organism not typed", "format": "cell-based", "data": [{"smiles": "CCC([C@@H](C)O)n1ncn(-c2ccc(N3CCN(c4ccc(OC[C@@H]5CO[C@@](Cn6cncn6)(c6ccc(F)cc6F)C5)cc4)CC3)cc2)c1=O", "note": "(stereo partly shown) [Posaconazole]", "values": [{"measurement": "MIC", "setting": "Absidia spp, read-out: Geometric Mean MIC", "value": 0.177, "unit": "µg/mL"}, {"measurement": "MIC", "setting": "Absidia spp, read-out: MIC[90]", "value": "0.031 to 0.5", "unit": "µg/mL"}, {"measurement": "MIC", "setting": "Alternaria spp, read-out: Geometric Mean MIC", "value": 0.101, "unit": "µg/mL"}, {"measurement": "MIC", "setting": "Alternaria spp, read-out: MIC[90]", "value": 0.25, "unit": "µg/mL"}, {"measurement": "MIC", "setting": "Apophysomyces spp, read-out: Geometric Mean MIC", "value": 0.34, "unit": "µg/mL"}, {"measurement": "MIC", "setting": "Apophysomyces spp, read-out: MIC[90]", "value": "0.031 to 4", "unit": "µg/mL"}, {"measurement": "MIC", "setting": "Arthroderma terrestre, Trichophyton terrestre, read-out: Geometric Mean MIC", "value": 0.125, "unit": "µg/mL"}, {"measurement": "MIC", "setting": "Arthroderma terrestre, Trichophyton terrestre, read-out: MIC[90]", "value": 0.125, "unit": "µg/mL"}, {"measurement": "MIC", "setting": "Aspergillus flavus, read-out: Geometric Mean MIC", "value": 0.079, "unit": "µg/mL"}, {"measurement": "MIC", "setting": "Aspergillus flavus, read-out: MIC[90]", "value": 0.25, "unit": "µg/mL"}, {"measurement": "MIC", "setting": "Aspergillus fumigatus, read-out: Geometric Mean MIC", "value": 0.118, "unit": "µg/mL"}, {"measurement": "MIC", "setting": "Aspergillus fumigatus, read-out: MIC[90]", "value": 0.5, "unit": "µg/mL"}, {"measurement": "MIC", "setting": "Aspergillus nidulans, read-out: Geometric Mean MIC", "value": 0.055, "unit": "µg/mL"}, {"measurement": "MIC", "setting": "Aspergillus nidulans, read-out: MIC[90]", "value": 0.25, "unit": "µg/mL"}, {"measurement": "MIC", "setting": "Aspergillus niger, read-out: Geometric Mean MIC", "value": 0.195, "unit": "µg/mL"}, {"measurement": "MIC", "setting": "Aspergillus niger, read-out: MIC[90]", "value": 0.5, "unit": "µg/mL"}, {"measurement": "MIC", "setting": "Aspergillus sydowii, read-out: Geometric Mean MIC", "value": 0.177, "unit": "µg/mL"}, {"measurement": "MIC", "setting": "Aspergillus sydowii, read-out: MIC[90]", "value": "0.031 to 0.5", "unit": "µg/mL"}, {"measurement": "MIC", "setting": "Aspergillus terreus, read-out: Geometric Mean MIC", "value": 0.052, "unit": "µg/mL"}, {"measurement": "MIC", "setting": "Aspergillus terreus, read-out: MIC[90]", "value": 0.25, "unit": "µg/mL"}, {"measurement": "MIC", "setting": "Aspergillus ustus, read-out: Geometric Mean MIC", "value": 1.64, "unit": "µg/mL"}, {"measurement": "MIC", "setting": "Aspergillus ustus, read-out: MIC[90]", "value": "0.25 to 8", "unit": "µg/mL"}, {"measurement": "MIC", "setting": "Bipolaris spp, read-out: Geometric Mean MIC", "value": 0.354, "unit": "µg/mL"}, {"measurement": "MIC", "setting": "Bipolaris spp, read-out: MIC[90]", "value": "0.125 to 1", "unit": "µg/mL"}, {"measurement": "MIC", "setting": "Bjerkandera adusta, read-out: Geometric Mean MIC", "value": 0.25, "unit": "µg/mL"}, {"measurement": "MIC", "setting": "Bjerkandera adusta, read-out: MIC[90]", "value": 0.25, "unit": "µg/mL"}, {"measurement": "MIC", "setting": "Blastomyces dermatitidis, read-out: Geometric Mean MIC", "value": 0.053, "unit": "µg/mL"}, {"measurement": "MIC", "setting": "Blastomyces dermatitidis, read-out: MIC[90]", "value": 0.125, "unit": "µg/mL"}, {"measurement": "MIC", "setting": "Candida albicans, read-out: Geometric Mean MIC", "value": 0.037, "unit": "µg/mL"}, {"measurement": "MIC", "setting": "Candida albicans, read-out: MIC[90]", "value": 0.25, "unit": "µg/mL"}, {"measurement": "MIC", "setting": "Candida dubliniensis, read-out: Geometric Mean MIC", "value": 0.062, "unit": "µg/mL"}, {"measurement": "MIC", "setting": "Candida dubliniensis, read-out: MIC[90]", "value": 0.25, "unit": "µg/mL"}, {"measurement": "MIC", "setting": "Candida tropicalis, read-out: Geometric Mean MIC", "value": 0.081, "unit": "µg/mL"}, {"measurement": "MIC", "setting": "Candida tropicalis, read-out: MIC[90]", "value": 0.25, "unit": "µg/mL"}, {"measurement": "MIC", "setting": "Clavispora lusitaniae, Candida lusitaniae, read-out: Geometric Mean MIC", "value": 0.048, "unit": "µg/mL"}, {"measurement": "MIC", "setting": "Clavispora lusitaniae, Candida lusitaniae, read-out: MIC[90]", "value": 0.125, "unit": "µg/mL"}, {"measurement": "MIC", "setting": "Coccidioides immitis, read-out: Geometric Mean MIC, Coccidioides immitis", "value": 0.304, "unit": "µg/mL"}, {"measurement": "MIC", "setting": "Coccidioides immitis, read-out: MIC[90], Coccidioides immitis", "value": 1, "unit": "µg/mL"}, {"measurement": "MIC", "setting": "Cryptococcus neoformans, read-out: Geometric Mean MIC", "value": 0.119, "unit": "µg/mL"}, {"measurement": "MIC", "setting": "Cryptococcus neoformans, read-out: MIC[90]", "value": 0.25, "unit": "µg/mL"}, {"measurement": "MIC", "setting": "Curvularia spp, read-out: Geometric Mean MIC", "value": 0.072, "unit": "µg/mL"}, {"measurement": "MIC", "setting": "Curvularia spp, read-out: MIC[90]", "value": "0.031 to 0.125", "unit": "µg/mL"}, {"measurement": "MIC", "setting": "Debaryomyces hansenii, Candida famata, read-out: Geometric Mean MIC", "value": 0.125, "unit": "µg/mL"}, {"measurement": "MIC", "setting": "Debaryomyces hansenii, Candida famata, read-out: MIC[90]", "value": 0.5, "unit": "µg/mL"}, {"measurement": "MIC", "setting": "Diutina rugosa, Candida rugosa, read-out: Geometric Mean MIC", "value": 0.039, "unit": "µg/mL"}, {"measurement": "MIC", "setting": "Diutina rugosa, Candida rugosa, read-out: MIC[90]", "value": 0.5, "unit": "µg/mL"}, {"measurement": "MIC", "setting": "Dujonia zeylanoides, Candida zeylanoides, read-out: Geometric Mean MIC", "value": 0.031, "unit": "µg/mL"}, {"measurement": "MIC", "setting": "Dujonia zeylanoides, Candida zeylanoides, read-out: MIC[90]", "value": "0.008 to 0.25", "unit": "µg/mL"}, {"measurement": "MIC", "setting": "Epidermophyton floccosum, read-out: Geometric Mean MIC", "value": 0.029, "unit": "µg/mL"}, {"measurement": "MIC", "setting": "Epidermophyton floccosum, read-out: MIC[90]", "value": 0.125, "unit": "µg/mL"}, {"measurement": "MIC", "setting": "Exophiala dermatidis, read-out: Geometric Mean MIC", "value": 0.125, "unit": "µg/mL"}, {"measurement": "MIC", "setting": "Exophiala dermatidis, read-out: MIC[90]", "value": 0.125, "unit": "µg/mL"}, {"measurement": "MIC", "setting": "Exophiala dermatitidis, Wangiella dermatitidis, read-out: Geometric Mean MIC", "value": 0.088, "unit": "µg/mL"}, {"measurement": "MIC", "setting": "Exophiala dermatitidis, Wangiella dermatitidis, read-out: MIC[90]", "value": "0.063 to 0.125", "unit": "µg/mL"}, {"measurement": "MIC", "setting": "Exophiala jeanselmei, read-out: Geometric Mean MIC", "value": 0.287, "unit": "µg/mL"}, {"measurement": "MIC", "setting": "Exophiala jeanselmei, read-out: MIC[90]", "value": 0.5, "unit": "µg/mL"}, {"measurement": "MIC", "setting": "Exophiala moniliae, read-out: Geometric Mean MIC", "value": 0.016, "unit": "µg/mL"}, {"measurement": "MIC", "setting": "Exophiala moniliae, read-out: MIC[90]", "value": 0.016, "unit": "µg/mL"}, {"measurement": "MIC", "setting": "Fonsecae pedrosoi, read-out: Geometric Mean MIC", "value": 0.25, "unit": "µg/mL"}, {"measurement": "MIC", "setting": "Fonsecae pedrosoi, read-out: MIC[90]", "value": 0.25, "unit": "µg/mL"}, {"measurement": "MIC", "setting": "Fusarium spp, read-out: Geometric Mean MIC", "value": 2.32, "unit": "µg/mL"}, {"measurement": "MIC", "setting": "Fusarium spp, read-out: MIC[90]", "value": 16, "unit": "µg/mL"}, {"measurement": "MIC", "setting": "Hansenula anomala, Pichia anomala, read-out: Geometric Mean MIC", "value": 0.689, "unit": "µg/mL"}, {"measurement": "MIC", "setting": "Hansenula anomala, Pichia anomala, read-out: MIC[90]", "value": 1, "unit": "µg/mL"}, {"measurement": "MIC", "setting": "Histoplasma capsulatum, read-out: Geometric Mean MIC, Histoplasma capsulatum", "value": 0.038, "unit": "µg/mL"}, {"measurement": "MIC", "setting": "Histoplasma capsulatum, read-out: MIC[90], Histoplasma capsulatum", "value": 0.25, "unit": "µg/mL"}, {"measurement": "MIC", "setting": "Kluyveromyces marxianus, Candida kefyr, read-out: Geometric Mean MIC", "value": 0.081, "unit": "µg/mL"}, {"measurement": "MIC", "setting": "Kluyveromyces marxianus, Candida kefyr, read-out: MIC[90]", "value": 0.25, "unit": "µg/mL"}, {"measurement": "MIC", "setting": "Kluyveromyces marxianus, read-out: Geometric Mean MIC", "value": 0.079, "unit": "µg/mL"}, {"measurement": "MIC", "setting": "Kluyveromyces marxianus, read-out: MIC[90]", "value": "0.063 to 0.25", "unit": "µg/mL"}, {"measurement": "MIC", "setting": "Kodamaea ohmeri, Pichia ohmeri, read-out: Geometric Mean MIC", "value": 0.016, "unit": "µg/mL"}, {"measurement": "MIC", "setting": "Kodamaea ohmeri, Pichia ohmeri, read-out: MIC[90]", "value": 0.016, "unit": "µg/mL"}, {"measurement": "MIC", "setting": "Lodderomyces parapsilosis, Candida parapsilosis, read-out: Geometric Mean MIC", "value": 0.073, "unit": "µg/mL"}, {"measurement": "MIC", "setting": "Lodderomyces parapsilosis, Candida parapsilosis, read-out: MIC[90]", "value": 0.125, "unit": "µg/mL"}, {"measurement": "MIC", "setting": "Meyerozyma guilliermondii, Candida guilliermondii, read-out: Geometric Mean MIC", "value": 0.178, "unit": "µg/mL"}, {"measurement": "MIC", "setting": "Meyerozyma guilliermondii, Candida guilliermondii, read-out: MIC[90]", "value": 0.5, "unit": "µg/mL"}]}]}
